Columns and labels:
monoclonal antibody DD-6 = assay: Competition ELISA with monoclonal antibody DD-6; assay type: binding, Biozzi mice; details: competitor vs monoclonal antibody DD-6; plate coated with A-triCDD-RSA
Protocol: (§1) In this case the hybridomas were then screened for their ability to distinguish A-triCDD-BSA and A-triCDD-RSA from BSA and RSA. On the basis of this initial screen about 25 stable, antibody-producing colonies were isolated, subcloned, and frozen. The remaining clones were again screened for their abilities to recognize free TCDD in suspension. Experimentally, on the order of 10-100 nanograms of TCDD in hexane was dried, 0.5 ml of saline with BSA (1 mg/ml) was added and sonificated for 2 hrs. […] Identical procedures were followed for other dioxin isomers. A dilution series in microtiter plate wells was then made with the suspended TCDD, antibody adde, and the competition ELISA completed. Competition ELISA test procedures are discussed in detail in the following reference: Butt, W. R. (1984) "Practical Immunoassay: The State of the Art", Marcel Dekker, Inc., N.Y., N.Y.
(§2) A large part of the success that we have had in characterizing the binding specificities of our monoclonal antibodies comes from having developed a reliable competition ELISA protocol. Our preferred assay starts from stock solutions at 10 ppm in hexane of the various compounds listed in Table I. 10 μl of hexane solution is aliquoted into a small vial, evaporated under a stream of nitrogen gas, and 500 μl of a 1 mg/ml solution of BSA in phosphate buffered saline with 0.1% BSA is added. The vial is capped and placed in an ultrasonic cleaning waterbath for two hours. Two hours of sonification gives a more reproducible assay than does an hour. During the sonification, the hexane appears to evaporate completely, and one is left with an aqueous solution containing the dioxin. Microtiter plates coated with A-triCDD-RSA are blocked with a three percent solution of ovalbumin and a two-fold dilution series of sonificated dioxin-BSA is then made, covering the range 100 ppb-0.1 ppb. In each well of the plate 100 μl of the sonificated dioxin-BSA solution is mixed with n equal volume of antibody. The antibody partitions between the dioxin adsorbed to the BSA, and the A-tri-CDD-RSA on the plate.
(§3) A-TriCDD-RSA was adsorbed onto the surface of the wells of a microtiter plate. The various competitors listed were suspended in saline containing bovine serum albumin (BSA). These solutions were made by sonificating 10 μl of dioxin solution in hexane with 500 μl of saline-BSA. A dilution series of these dioxin-BSA solutions was then made covering the range of 100-0.2 ppb, and placed in the microtiter plate wells. An equal volume of DD-1 monoclonal antibody was then added, and allowed to react for 1 hour. Tne antibody binds either to the A-TriCDD-RSA on the plate or the dioxin in solution. After the hour, the solution phase is removed, the plate washed, and it is reincubated for an hour with peroxidase-conjugated goat-anti-mouse-immunoglobulins. A second washing is then done, and substrate (ABTS) added to the peroxidase. The enzyme-antibody conjugate and substrate function as a "developer", allowing the visualization of the DD-1 bound to the A-triCDD-RSA on the plate. Results are then expressed as a fraction of the response in wells with no competitor. […] At about 20 ppb of 2,3,7,8-TCDD the relative ELISA response is half of control, meaning that half the DD-1 antibody bound to the solution phase dioxin and half bound to the A-triCDD-RSA on the plate. For 1,2,3,7(8)-TCDD, 50% inhibition occurs at about 4 ppb, indicating the DD-1 prefers 1,2,3,7(8)-TCDD to 2,3,7,8-TCDD.
(§4) The FIGURE and Table II show representative competition data using several chlorinated compounds as competitors. From such data, one can determine the concentration required to inhibit antibody binding by 50% (I50). Table II lists the I50 for all compounds tested with the antibodies. In reporting these values, factors of two are about the limit of significance. […] The binding specificities of these antibodies are highly desirable, since they prefer the most toxic of the dioxin and dibenzofuran isomers.

monoclonal antibody DD-1 = assay: Competition ELISA with monoclonal antibody DD-1; assay type: binding, Biozzi mice; details: competitor vs monoclonal antibody DD-1; plate coated with A-triCDD-RSA
Protocol: as §1, §2, §3, §4

monoclonal antibody DD-3 = assay: Competition ELISA with monoclonal antibody DD-3; assay type: binding, BALB/c mice; details: competitor vs monoclonal antibody DD-3; plate coated with A-triCDD-RSA
Protocol: as §1, §2, §3, §4

monoclonal antibody DD-5 = assay: Competition ELISA with monoclonal antibody DD-5; assay type: binding, Biozzi mice; details: competitor vs monoclonal antibody DD-5; plate coated with A-triCDD-RSA
Protocol: as §1, §2, §3, §4

monoclonal antibody DD-4 = assay: Competition ELISA with monoclonal antibody DD-4; assay type: binding, BALB/c mice; details: for I50 (inhibits antibody binding by 50%): competitor vs monoclonal antibody DD-4, plate coated with A-triCDD-RSA
Protocol: as §1, §2, §3, §4

Molecule | I50 (inhibits antibody binding by 50%) (monoclonal antibody DD-6) [ng] | I50 (inhibits antibody binding by 50%) (monoclonal antibody DD-1) [ng] | I50 (inhibits antibody binding by 50%) (monoclonal antibody DD-3) [ng] | I50 (inhibits antibody binding by 50%) (monoclonal antibody DD-5) [ng] | reactivity of DD-4 with competitor (monoclonal antibody DD-4; DD-4) | I50 (inhibits antibody binding by 50%) (monoclonal antibody DD-4) [ng]
1,2,3,6(7),7(8),8(9)-hexa-CD[ | > 200 | > 200 | > 200 | > 10 | some reactivity | > 200
O=[N+]([O-])c1cc(Cl)ccc1Cl [2,5-Dichloronitrobenzene, 2,5-Dichloronitro-benzene] | 700 | 90 | 2000 | 2000 | – | > 2000
Nc1c(Cl)ccc2c1Oc1cc(Cl)c(Cl)cc1O2 [1-amino-2,7,8-TriCDD] | 0.02 | 0.2 | > 0.04 | > 0.02 | – | > 0.01
Clc1ccc(-c2cc(Cl)c(Cl)c(Cl)c2Cl)c(Cl)c1 [2,2',3,4,4',5-Hexa-CBP] | > 200 | > 200 | > 200 | > 10 | – | > 200
ClC1=C(Cl)C2(Cl)C3C4CC(C5OC45)C3C1(Cl)C2(Cl)Cl (stereo not drawn) [Endrin] | > 2000 | > 2000 | > 2000 | > 2000 | – | > 2000
Clc1cc(Cl)c(-c2ccccc2Cl)c(Cl)c1 [2,2',4,6-TCBP] | > 200 | > 200 | > 200 | > 10 | – | > 200
Brc1cc2c(cc1Br)Oc1cc(Br)c(Br)cc1O2 [2,3,7,8-tetra-Bromo-DD] | > 2 | 0.05 | 1 | – | – | 1
Clc1cc(Cl)c2c(c1Cl)Oc1ccccc1O2 [1,2,4-Tri-CDD] | > 200 | > 200 | > 200 | > 10 | – | > 200
Clc1ccc(Cl)c(-c2c(Cl)c(Cl)c(Cl)c(Cl)c2Cl)c1 [2,2',3,4,5,5',6-Hepta-CBP] | > 200 | > 200 | > 200 | > 10 | – | > 200
Clc1ccccc1-c1cc(Cl)c(Cl)c(Cl)c1Cl [2,2',3,4,5-Penta-CBP] | > 200 | > 200 | > 200 | > 10 | – | > 200
Clc1ccc(Cl)c(-c2c(Cl)c(Cl)c(Cl)c(Cl)c2Cl)c1Cl [2,2',3,3',4,5,6,6'-Octa-CBP] | > 200 | > 200 | > 200 | > 10 | – | > 200
Clc1ccc(C(c2ccc(Cl)cc2)C(Cl)(Cl)Cl)cc1 [DDT] | > 2000 | > 2000 | > 2000 | > 2000 | – | > 2000
Oc1ccc(Cl)cc1Cl [2,4-Dichlorophenol] | > 2000 | 2000 | > 2000 | > 2000 | – | > 2000
O=S1OCC2C(CO1)C1(Cl)C(Cl)=C(Cl)C2(Cl)C1(Cl)Cl (stereo not drawn) [Endosulfan] | > 2000 | > 2000 | > 2000 | > 2000 | – | > 2000
Toxaphene | > 2000 | – | > 2000 | > 2000 | – | > 2000
Clc1ccc(-c2c(Cl)cc(Cl)c(Cl)c2Cl)c(Cl)c1Cl [2,2',3,3',4,4',6-Hepta-CBP] | > 200 | > 200 | > 200 | > 10 | – | > 200
Oc1cc(Cl)c(Cl)cc1Cl [2,4,5-Trichlorophonol] | > 2000 | 800 | > 2000 | > 2000 | – | > 2000
O=[N+]([O-])c1c(Cl)ccc2c1Oc1cc(Cl)c(Cl)cc1O2 [1-nitro-2,7,8-TriCDD] | > 0.004 | 0 | 0.15 | – | – | 0.02
Clc1cc2c(cc1Cl)Oc1c(cc(Cl)c(Cl)c1Cl)O2 [1,2,3,7,8-penta-CDD] | > 0.004 | 0.2 | 0.15 | – | – | 0.02
Clc1cc(-c2cc(Cl)c(Cl)c(Cl)c2Cl)c(Cl)c(Cl)c1Cl [2,2',3,3',4,4',5,5'-Octa-CBP] | > 200 | > 200 | > 200 | > 10 | – | > 200
Clc1ccc(-c2ccc(Cl)c(Cl)c2)cc1Cl [3,3',4,4'-TCBP] | 100 | > 200 | > 200 | > 10 | – | > 200
ClC1C(Cl)C(Cl)C(Cl)C(Cl)C1Cl (stereo not drawn) [BHC] | > 2000 | 300 | > 2000 | > 2000 | – | > 2000
Clc1ccc2c(c1)Oc1c(Cl)c(Cl)c(Cl)c(Cl)c1O2 [1,2,3,4,7-penta-CDD] | > 2 | > 2 | > 2 | – | – | > 2
O=C(O)COc1ccc(Cl)cc1Cl [2,4-Dichlorophenoxyacetic, 2,4-Dichlorophenoxy-acetic] | – | > 2000 | > 2000 | – | – | > 2000
